Patent publication US20220267310A1, “QUINAZOLINE AND CINNOLINE DERIVATIVES AS DNA-PK INHIBITOR” (MEDSHINE DISCOVERY INC., priority 2019, published 2022)

Assays:
PI3K (p110σ/p85α) = target: T1, PI3K (p110σ/p85α) (Homo sapiens, UniProt O00329); test: PI3K (p110σ/p85α) kinase inhibitory activity (HTRF); type: biochemical
T1 construct: Eurofins Pharma Discovery Service (contract assay)

PI3K (p120γ) = target: T2, PI3K (p120γ) (Homo sapiens, UniProt P48736); test: PI3K (p120γ) kinase inhibitory activity (HTRF); type: biochemical
T2 construct: Eurofins Pharma Discovery Service (contract assay)
T2 sequence (P48736 whole entry): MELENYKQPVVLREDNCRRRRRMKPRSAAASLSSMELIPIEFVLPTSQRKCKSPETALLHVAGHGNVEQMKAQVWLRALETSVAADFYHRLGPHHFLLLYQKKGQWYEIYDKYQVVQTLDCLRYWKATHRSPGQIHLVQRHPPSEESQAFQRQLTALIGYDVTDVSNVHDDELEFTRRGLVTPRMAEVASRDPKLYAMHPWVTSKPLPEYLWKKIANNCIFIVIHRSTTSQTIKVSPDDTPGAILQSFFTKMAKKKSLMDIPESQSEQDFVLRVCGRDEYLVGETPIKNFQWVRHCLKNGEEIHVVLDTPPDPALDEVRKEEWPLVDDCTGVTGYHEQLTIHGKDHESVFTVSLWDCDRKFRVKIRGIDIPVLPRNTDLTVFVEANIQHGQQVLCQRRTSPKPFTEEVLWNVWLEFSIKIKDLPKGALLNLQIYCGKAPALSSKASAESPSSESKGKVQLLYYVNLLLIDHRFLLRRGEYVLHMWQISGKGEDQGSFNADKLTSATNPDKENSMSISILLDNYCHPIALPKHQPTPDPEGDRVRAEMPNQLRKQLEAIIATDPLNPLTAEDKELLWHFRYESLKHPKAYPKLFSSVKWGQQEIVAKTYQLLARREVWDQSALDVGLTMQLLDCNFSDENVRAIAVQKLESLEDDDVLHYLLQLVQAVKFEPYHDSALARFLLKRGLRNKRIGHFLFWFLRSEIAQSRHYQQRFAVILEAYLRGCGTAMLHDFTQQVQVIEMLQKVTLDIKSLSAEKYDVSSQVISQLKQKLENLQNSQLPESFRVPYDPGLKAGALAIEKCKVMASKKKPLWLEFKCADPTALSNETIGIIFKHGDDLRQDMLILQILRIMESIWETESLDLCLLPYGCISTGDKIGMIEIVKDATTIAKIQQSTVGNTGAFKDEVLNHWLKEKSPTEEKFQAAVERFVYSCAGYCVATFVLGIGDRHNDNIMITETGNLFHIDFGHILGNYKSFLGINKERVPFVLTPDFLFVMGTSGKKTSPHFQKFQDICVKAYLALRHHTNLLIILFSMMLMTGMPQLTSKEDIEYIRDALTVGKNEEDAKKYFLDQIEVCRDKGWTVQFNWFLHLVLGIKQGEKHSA
Procedure: This experiment was tested at Eurofins Pharma Discovery Service, Reaction Biology Corp. (RBC)
[…] DNA-PK: Mg/ATP; GST-cMyc-p53; EDTA; Ser15 antibody; ATP: 10 μM; biotinylated phosphatidylinositol-3,4,5-triphosphate; GST label GRP1 PH domain; streptavidin and phycocyanin; europium-labelled monoclonal antibody against GST.
PI3K (p120γ) was incubated in a determination buffer containing phosphatidylinositol 4,5-diphosphate and Mg/ATP (density as required). The reaction was initiated by adding a mixture of Mg/ATP. After incubating at room temperature for 30 min, a termination solution containing EDTA and biotinylated phosphatidylinositol-3,4,5-triphosphate was added to terminate the reaction. Finally, a detection buffer (containing labeled anti-GST monoclonal antibody, PH domain of GRP1 with GST label and streptavidin and phycyanin and […]) was added. Then, the board was read in time-resolved fluorescence mode, and an HTRF signal was measured according to the formula HTRF=10000×(Em665 nm/Em620 nm).

[1] = test system: human head and neck cancer FaDu cell subcutaneous xenograft tumor; test: FaDu subcutaneous xenograft, mono and combination with radiotherapy; type: in vivo; conditions: for Tumor volume (mm^3), 3 days after administration: day 3; for Tumor volume (mm^3), 3 days after administration / Tumor volume (mm^3), 7 days after administration / Tumor volume (mm^3), 10 days after administration / Tumor volume (mm^3), 14 days after administration / Tumor volume (mm^3), 17 days after administration / Tumor volume (mm^3), 23 days after administration / Tumor volume (mm^3), 28 days after administration / Tumor volume (mm^3), 31 days after administration / Tumor volume (mm^3), 35 days after administration / Tumor volume (mm^3), 42 days after administration / Tumor volume (mm^3), 49 days after administration / Tumor volume (mm^3), 56 days after administration / Tumor volume (mm^3), 63 days after administration / Tumor volume (mm^3), 70 days after administration / Tumor volume (mm^3) (0th day) / Tumor volume (mm^3) (21th day): average ± SEM, n = 8; for Tumor volume (mm^3), 7 days after administration: day 7; for Tumor volume (mm^3), 10 days after administration: day 10; for Tumor volume (mm^3), 14 days after administration: day 14; for Tumor volume (mm^3), 17 days after administration: day 17; for Tumor volume (mm^3), 23 days after administration: day 23; for Tumor volume (mm^3), 28 days after administration: day 28; for Tumor volume (mm^3), 31 days after administration: day 31; for Tumor volume (mm^3), 35 days after administration: day 35; for Tumor volume (mm^3), 42 days after administration: day 42; for Tumor volume (mm^3), 49 days after administration: day 49; for Tumor volume (mm^3), 56 days after administration: day 56; for Tumor volume (mm^3), 63 days after administration: day 63; for Tumor volume (mm^3), 70 days after administration: day 70; for RTV (21th day) / T/C (%) (21th day) / TGI (%) (21th day) / Tumor volume (mm^3) (0th day) / Tumor volume (mm^3) (21th day): PO
Procedure: Experiment purpose: The antitumor activity of the tested compound was evaluated in a nude mouse model of human head and neck cancer FaDu cell subcutaneous xenograft tumor
Experimental animals: Female BALB/c nude mice, 6-8 weeks old, weighing 17-23 grams; supplier: B&K Universal Group Limited
Human head and neck cancer FaDu cell (ATCC, Manassas. Virginiaite, item number: HTB-43) was cultured in vitro in a culture condition of EMEM medium with 10% fetal bovine serum, 100 U/mL penicillin and 100 μg/mL streptomycin, incubated at 37° C. and 5% CO2. Conventional digestive treatment passage was carried out using pancreatic enzyme—EDTA twice a week.
Each mouse was subcutaneously inoculated with 0.1 mL ([…]) FaDu cells at the right dorsal position, and when the average tumor volume reaches about 106 mm^3, randomization was used for initiating drug administration.
The tested compound was prepared as a 5 mg/mL clarified solution with 10% DMSO+50% polyethylene glycol 400+40% water as the solvent. Preparation was conducted every three days.
The experimental indicators refers to study whether tumor growth was inhibited, delayed, or cured. Tumor diameter was measured twice a week with a vernier caliper. The calculation formula of the tumor volume was V=0.5a×b^2, and a and b represent the long diameter and short diameter of the tumor, respectively.
The antitumor efficacy of the compound was evaluated by TGI (%) or relative tumor proliferation rate T/C (%). TGI (%) reflects the tumor growth inhibition rate. The calculation of TGI (%): TGI (%)=[1−(average tumor volume at the end of administration of a certain treatment group−average tumor volume at the beginning of administration of the treatment group)/(average tumor volume at the end of treatment in solvent control group−average tumor volume at the beginning of treatment in solvent control group)]×control group.
Relative tumor proliferation rate T/C (%): the calculation formula was as follows: T/C %=[…] TRTV/CRTV group (TRTV: treatment group RTV: CRTV: negative control group RTV). According to results of tumor measurement. Relative Tumor Volume (RTV) was calculated by the formula RTV=Vt/V0, where V0 was the average tumor volume measured in group administration (i.e., d0), and Vt was the average tumor volume measured in a certain single measurement. TRTV and CRTV collect data on the same day.
Statistic analysis includes an average value and a standard error (SEM) of tumor volume at each time point for each group. […] If there was no significant difference in F value, Dunnet (2-sided) method was applied to analysis. All data were analyzed using SPSS 17.0. P<0.05 was considered as having a significant difference.

[2] = 25 mg/kg, QD + radiotherapy 2 Gy
[3] = 50 mg/kg, QD + radiotherapy 2 Gy

T1 sequence (O00329 whole entry): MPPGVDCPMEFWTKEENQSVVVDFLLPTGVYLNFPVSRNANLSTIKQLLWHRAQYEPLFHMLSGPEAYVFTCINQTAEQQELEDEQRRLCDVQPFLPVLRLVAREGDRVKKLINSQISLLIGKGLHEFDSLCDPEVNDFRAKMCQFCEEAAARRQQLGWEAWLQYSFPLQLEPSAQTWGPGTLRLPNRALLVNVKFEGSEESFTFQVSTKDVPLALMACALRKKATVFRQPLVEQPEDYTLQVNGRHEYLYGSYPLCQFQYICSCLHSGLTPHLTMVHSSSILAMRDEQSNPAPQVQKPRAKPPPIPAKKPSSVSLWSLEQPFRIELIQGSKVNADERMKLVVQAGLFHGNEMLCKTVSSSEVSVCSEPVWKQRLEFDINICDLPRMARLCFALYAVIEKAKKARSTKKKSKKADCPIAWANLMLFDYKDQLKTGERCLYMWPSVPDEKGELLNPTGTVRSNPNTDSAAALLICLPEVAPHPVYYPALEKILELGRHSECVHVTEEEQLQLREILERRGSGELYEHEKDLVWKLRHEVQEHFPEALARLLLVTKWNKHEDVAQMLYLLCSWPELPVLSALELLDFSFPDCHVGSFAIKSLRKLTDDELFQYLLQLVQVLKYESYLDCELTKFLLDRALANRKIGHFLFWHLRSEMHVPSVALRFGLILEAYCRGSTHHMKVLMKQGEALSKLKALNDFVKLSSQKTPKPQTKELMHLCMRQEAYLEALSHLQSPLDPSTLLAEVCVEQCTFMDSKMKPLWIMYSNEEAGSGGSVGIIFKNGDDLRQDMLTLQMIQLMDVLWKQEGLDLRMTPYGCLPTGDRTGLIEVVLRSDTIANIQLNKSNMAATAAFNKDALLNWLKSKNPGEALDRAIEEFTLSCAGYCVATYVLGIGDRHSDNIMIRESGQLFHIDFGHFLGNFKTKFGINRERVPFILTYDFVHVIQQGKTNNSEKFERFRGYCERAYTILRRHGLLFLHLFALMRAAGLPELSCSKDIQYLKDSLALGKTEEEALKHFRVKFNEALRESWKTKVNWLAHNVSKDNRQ
T1 sequence (P27986 whole entry partner): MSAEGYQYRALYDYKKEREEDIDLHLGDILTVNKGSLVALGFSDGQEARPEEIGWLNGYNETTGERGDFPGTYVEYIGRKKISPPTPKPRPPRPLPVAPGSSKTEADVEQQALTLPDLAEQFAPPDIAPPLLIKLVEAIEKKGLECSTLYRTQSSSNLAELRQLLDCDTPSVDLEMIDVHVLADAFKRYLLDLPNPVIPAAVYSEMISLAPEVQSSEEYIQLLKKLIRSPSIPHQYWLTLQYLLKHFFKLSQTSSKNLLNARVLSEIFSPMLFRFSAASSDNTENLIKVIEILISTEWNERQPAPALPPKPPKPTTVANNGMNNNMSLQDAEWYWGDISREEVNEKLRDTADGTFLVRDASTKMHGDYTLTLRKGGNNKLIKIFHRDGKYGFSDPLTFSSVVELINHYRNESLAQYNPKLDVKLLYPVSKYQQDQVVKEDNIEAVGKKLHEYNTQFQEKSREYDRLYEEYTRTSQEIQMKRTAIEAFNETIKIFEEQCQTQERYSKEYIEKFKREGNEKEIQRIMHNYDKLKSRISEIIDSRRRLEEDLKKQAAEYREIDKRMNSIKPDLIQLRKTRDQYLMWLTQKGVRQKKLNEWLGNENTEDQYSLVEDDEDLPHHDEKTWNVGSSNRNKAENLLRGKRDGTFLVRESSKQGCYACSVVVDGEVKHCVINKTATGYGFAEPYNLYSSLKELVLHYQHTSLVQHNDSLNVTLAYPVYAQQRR

For COc1ccc(C(O)c2cc(-c3cnnc4c(F)c(N5CCOCC5)cc(F)c34)c(F)cc2Cl)nn1 (single isomer, unassigned) [Embodiment 19], the IC50 (PI3K (p110σ/p85α)) was 0.6 µM, the IC50 (PI3K (p120γ)) was 9.15 µM and the “Tumor volume (mm^3), 3 days after administration” value (“Tumor volume (mm^3), 3 days” for short) ([1]; 25 mg/kg + 2 Gy) was 172 ± 16 mm^3. The “Tumor volume (mm^3), 7 days after administration” value (from here on “Tumor volume (mm^3), 7 days”) ([1]; 25 mg/kg + 2 Gy) was 136 ± 11 mm^3, the “Tumor volume (mm^3), 10 days after administration” value (from here on “Tumor volume (mm^3), 10 days”) ([1]; 25 mg/kg + 2 Gy) was 76 ± 11 mm^3 and the “Tumor volume (mm^3), 14 days after administration” value (shortened to “Tumor volume (mm^3), 14 days”) ([1]; 25 mg/kg + 2 Gy) was 29 ± 5 mm^3. For the same compound, the “Tumor volume (mm^3), 17 days after administration” value (“Tumor volume (mm^3), 17 days” below) ([1]; 25 mg/kg + 2 Gy) was 11 ± 3 mm^3, the “Tumor volume (mm^3), 23 days after administration” value (from here on “Tumor volume (mm^3), 23 days”) ([1]; 25 mg/kg + 2 Gy) was 1 ± 1 mm^3 and the “Tumor volume (mm^3), 28 days after administration” value ([1]; 25 mg/kg + 2 Gy) was 0 ± 0 mm^3. For the same compound, the “Tumor volume (mm^3), 31 days after administration” value ([1]; 25 mg/kg + 2 Gy) was 0 ± 0 mm^3, the “Tumor volume (mm^3), 35 days after administration” value ([1]; 25 mg/kg + 2 Gy) was 0 ± 0 mm^3 and the “Tumor volume (mm^3), 42 days after administration” value ([1]; 25 mg/kg + 2 Gy) was 0 ± 0 mm^3. For the same compound, the “Tumor volume (mm^3), 49 days after administration” value ([1]; 25 mg/kg + 2 Gy) was 0 ± 0 mm^3, the “Tumor volume (mm^3), 56 days after administration” value ([1]; 25 mg/kg + 2 Gy) was 0 ± 0 mm^3 and the “Tumor volume (mm^3), 63 days after administration” value ([1]; 25 mg/kg + 2 Gy) was 0 ± 0 mm^3. The “Tumor volume (mm^3), 70 days after administration” value ([1]; 25 mg/kg + 2 Gy) was 0 ± 0 mm^3, the “RTV (21th day)” value [1, 2] was 0.01 ± 0.01 and the “T/C (%) (21th day)” value [1, 2] was 0.08%. For the same compound, the “TGI (%) (21th day)” value [1, 2] was 108.61%, the “Tumor volume (mm^3) (0th day)” value ([1]; 25 mg/kg, QD + radiotherapy 2 Gy, 5-day radiotherapy, 2-day withdrawal) was 106 ± 6 mm^3 and the “Tumor volume (mm^3) (21th day)” value [1, 2] was 1 ± 1 mm^3. The “Tumor volume (mm^3), 3 days” value ([1]; 50 mg/kg + 2 Gy) was 175 ± 14 mm^3, the “Tumor volume (mm^3), 7 days” value ([1]; 50 mg/kg + 2 Gy) was 155 ± 17 mm^3 and the “Tumor volume (mm^3), 10 days” value ([1]; 50 mg/kg + 2 Gy) was 97 ± 16 mm^3. The “Tumor volume (mm^3), 14 days” value ([1]; 50 mg/kg + 2 Gy) was 45 ± 10 mm^3, the “Tumor volume (mm^3), 17 days” value ([1]; 50 mg/kg + 2 Gy) was 12 ± 5 mm^3 and the “Tumor volume (mm^3), 23 days” value ([1]; 50 mg/kg + 2 Gy) was 1 ± 1 mm^3. The “Tumor volume (mm^3), 28 days after administration” value ([1]; 50 mg/kg + 2 Gy) was 1 ± 0 mm^3, the “Tumor volume (mm^3), 31 days after administration” value ([1]; 50 mg/kg + 2 Gy) was 0 ± 0 mm^3 and the “Tumor volume (mm^3), 35 days after administration” value ([1]; 50 mg/kg + 2 Gy) was 0 ± 0 mm^3. For the same compound, the “Tumor volume (mm^3), 42 days after administration” value ([1]; 50 mg/kg + 2 Gy) was 0 ± 0 mm^3, the “Tumor volume (mm^3), 49 days after administration” value ([1]; 50 mg/kg + 2 Gy) was 0 ± 0 mm^3 and the “Tumor volume (mm^3), 56 days after administration” value ([1]; 50 mg/kg + 2 Gy) was 0 ± 0 mm^3. For the same compound, the “Tumor volume (mm^3), 63 days after administration” value ([1]; 50 mg/kg + 2 Gy) was 0 ± 0 mm^3, the “Tumor volume (mm^3), 70 days after administration” value ([1]; 50 mg/kg + 2 Gy) was 0 ± 0 mm^3 and the “animal death or euthanasia during the study” value ([1]; 50 mg/kg alone, one animal of the group) was “euthanized 22 days after the start of administration”. The “Tumor volume (mm^3), 3 days” value ([1]; 50 mg/kg alone) was 189 ± 18 mm^3, the “Tumor volume (mm^3), 7 days” value ([1]; 50 mg/kg alone) was 375 ± 28 mm^3 and the “Tumor volume (mm^3), 10 days” value ([1]; 50 mg/kg alone) was 568 ± 50 mm^3. For the same compound, the “Tumor volume (mm^3), 14 days” value ([1]; 50 mg/kg alone) was 946 ± 108 mm^3, the “Tumor volume (mm^3), 17 days” value ([1]; 50 mg/kg alone) was 1120 ± 131 mm^3 and the “Tumor volume (mm^3), 23 days” value ([1]; 50 mg/kg alone) was 1808 ± 372 mm^3. The “RTV (21th day)” value [1, 3] was 0.01 ± 0.01, the “T/C (%) (21th day)” value [1, 3] was 0.08% and the “TGI (%) (21th day)” value [1, 3] was 108.64%. The “Tumor volume (mm^3) (0th day)” value ([1]; 50 mg/kg, QD + radiotherapy 2 Gy, 5-day radiotherapy, 2-day withdrawal) was 106 ± 5 mm^3, the “Tumor volume (mm^3) (21th day)” value [1, 3] was 1 ± 1 mm^3 and the “RTV (21th day)” value ([1]; 50 mg/kg, QD, alone) was 14.18 ± 2.04. For the same compound, the “T/C (%) (21th day)” value ([1]; 50 mg/kg, QD, alone) was 114.35%, the “TGI (%) (21th day)” value ([1]; 50 mg/kg, QD, alone) was −15.37% and the “Tumor volume (mm^3) (0th day)” value ([1]; 50 mg/kg, QD, alone) was 106 ± 5 mm^3. For the same compound, the “Tumor volume (mm^3) (21th day)” value ([1]; 50 mg/kg, QD, alone) was 1501 ± 242 mm^3.
